Assays:
SCC-9 cell line = experiment: MTT cell viability assay, SCC-9; assay type: cell-based, human
Method: The viability of SCC cell lines and primary human fibroblast cells was evaluated using the MTT assay to determine half maximal inhibitory concentration (IC50). Briefly, cells were grown in triplicate in 96-well plates (5 × 10^3 cells/well) until confluence. Then the medium was removed, fresh medium was added, and the cells were returned to the incubator in the presence of different compounds. DMSO at the same concentrations was used as a 100% cell viability control. After 48 h, cells were incubated with 5 mg/mL MTT reagent (3-(4,5-dimethyl-2-thiazolyl)-2,5-diphenyl-2-H-tetrazolium bromide) (Sigma-Aldrich Co., St. Louis, MO, USA) for 3.5 h. After that, formazan crystals were dissolved in MTT solvent solution (DMSO/methanol 1:1 v/v), and the absorbance at 560 nm was evaluated using an EPOCH microplate spectrophotometer (BioTek Instruments, Winooski, VT, USA) with the background absorbance at 670 nm subtracted. Each of the 12 compounds (7a–7l) was tested at six different concentrations, ranging from 6.25 to 200 μM in cancer and normal cell lines. Control (carboplatin) was tested at six different concentrations ranging from 25 μM to 800 μM in cancer cells and from 50 μM to 1600 μM in normal cells.
Half-maximal inhibitory concentration (IC50) values were obtained from the MTT assay of at least three independent replicates through nonlinear regression analysis using GraphPad Prism 5.0 software (Intuitive Software for Science, San Diego, CA, USA). Data were presented as means ± standard deviation (SD). A log dose–response curve (inhibitor vs response) using the least-squares method was used to determine the IC50 and SD from the data. The selectivity index (SI) was calculated as the ratio between the IC50 in normal cells and the IC50 in cancer cells, obtained by dividing the IC50 of normal cells by the IC50 of cancer cells.

4T1 = experiment: MTT cell viability assay, 4T1; assay type: cell-based, murine
HCT116 = experiment: MTT cell viability assay, HCT116; assay type: cell-based, human
B16–F10 = experiment: MTT cell viability assay, B16–F10; assay type: cell-based, murine
SCC-9 cells [1] = experiment: ROS-Glo H2O2 assay; assay type: cell-based, human; conditions: SCC-9, 2 × IC50, 12 and 24 h
Method: (§1) The production of reactive oxygen species (ROS) was assessed by the detection of hydrogen peroxide (H2O2) using the ROS-Glo H2O2 assay kit (Promega Corporation, Madison, WI, USA; G8820). […] A plate with wells without cells was used as a control. Cells and cell-free wells remained in treatment at times of interest, and 2 h before completion of the times, well volumes were removed to reduce to 40 μL per well. Then the positive control of menadione (Sigma-Aldrich Co., St. Louis, MO, USA), a polycyclic aromatic ketone based on 1,4-naphthoquinone, was used to treat its respective well, and H2O2 substrate from the kit was added for all treatments, followed by the incubation of the plate for the remaining 2 h. Then the detection solution was added, and the plates remained at room temperature for 20 min, following the reading in the TD 20/20 luminometer (Turner Designs, Sunnyvale, CA, USA). The reading of bioluminescence detected is indicated as arbitrary units (a.u.). Additionally, the cell viability was assessed through pretreatment of cells with 10 mM N-acetyl-L-cysteine (NAC) (Sigma-Aldrich Co., St. Louis, MO, USA) for 2 h. […] At the end of the time, the MTT cell viability assay was performed.

SCC-9 cells [2] = experiment: MTT cell viability with N-acetyl-L-cysteine pretreatment; assay type: cell-based, human; conditions: SCC-9, 48 h; 7f 1 × IC50, menadione 20 μM
Method: as §1

SCC-9 cells [3] = experiment: Cytotoxicity assay (cell death inhibition) with z-VAD-fmk and necrostatin-1; assay type: cell-based; conditions: SCC-9, 2 × IC50 7f, 24 h
Method: This investigation consists of pretreating cells with different death inhibitors. For this assay, day SCC-9 cells were seeded in a 96-well plate, and the next day, they were pretreated for 2 h with 20 μM z-VAD-fmk (ZVAD) (Promega Corporation, Madison, WI, USA) and 20 μM necrostatin-1 (Nec-1) (Sigma-Aldrich Co., St. Louis, MO, USA) alone or in combination. […] The plate was incubated for 24 h, and the result was determined through an MTT cell viability assay. The absorbance was measured with an EPOCH (BioTek Instruments, Winooski, VT, USA) spectrometer at 560 nm.

PKM2 = target: T1, PKM2 (Homo sapiens, UniProt P14618); experiment: Quantification of ATP production from PKM2 reaction; assay type: biochemical; conditions: 1 × IC50 of 7f (55.13 μM)
T1 construct: purchased Sigma-Aldrich Co., St. Louis, MO, USA
Method: The measurement of PKM2 activity through ATP production was conducted to confirm whether the enzymatic inhibition observed in the previous assay was indeed due to PKM2. The master mix was prepared as indicated above. In a microtube containing the master mix prepared in the presence of 1 × IC50 7f, the control received the addition of 0.5 mM PEP for 3 min. Afterward, CellTiter-Glo reagent (Promega, Madison, WI, USA) was added as indicated by the manufacturer’s instructions, and the samples were kept shielded from light for 2 min. After the specified time, the sample was taken for reading in a Turner Designs TD 2020 luminometer (Turner Designs, Sunnyvale, CA, USA).

[4] = versus human gingival fibroblast

T1 sequence (P14618 whole entry): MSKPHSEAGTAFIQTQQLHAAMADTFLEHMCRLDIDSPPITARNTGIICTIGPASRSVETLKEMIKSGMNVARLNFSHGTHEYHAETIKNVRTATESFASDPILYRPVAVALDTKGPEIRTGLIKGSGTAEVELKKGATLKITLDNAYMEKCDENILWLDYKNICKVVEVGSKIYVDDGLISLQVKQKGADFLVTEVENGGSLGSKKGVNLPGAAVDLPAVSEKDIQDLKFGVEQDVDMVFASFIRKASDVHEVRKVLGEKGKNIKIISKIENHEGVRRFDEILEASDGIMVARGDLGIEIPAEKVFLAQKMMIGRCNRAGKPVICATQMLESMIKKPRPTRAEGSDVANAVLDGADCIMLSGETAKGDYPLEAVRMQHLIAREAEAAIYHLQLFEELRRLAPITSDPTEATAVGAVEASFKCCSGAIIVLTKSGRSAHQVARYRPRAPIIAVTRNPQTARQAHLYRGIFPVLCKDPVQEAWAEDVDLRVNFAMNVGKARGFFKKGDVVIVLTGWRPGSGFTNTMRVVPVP

O=C1C=C(OCc2cn(CCCOc3cc(=O)oc4ccccc34)nn2)C(=O)c2ccccc21 [Compound 7f, 2-((1-(3-((2-Oxo-2H-chromen-4-yl)oxy)propyl)-1H-1,2,3-triazol-4-yl)methoxy)naphthalene-1,4-dione]
IC50 (SCC-9 cell line; Homo sapiens, SCC-9, MTT, 48 h): 12.3 µM | SI SCC-9 (SCC-9 cell line; IC50 human gingival fibroblast / IC50 SCC-9): 1.85 | IC50 (4T1; Mus musculus, 4T1, MTT, murine breast cancer): 7.63 µM | SI 4T1 (4T1; [4]): 2.98 | IC50 (HCT116; HCT-116, MTT, human colon carcinoma): 6.72 µM | SI HCT116 (HCT116; [4]): 3.38 | IC50 (B16–F10; Mus musculus, B16-F10, MTT, murine melanoma): 4.93 µM | SI B16–F10 (B16–F10; [4]): 4.61 | production of hydrogen peroxide (H2O2) / ROS (SCC-9 cells [1]): significant increase in ROS after 12 and 24 h | cell viability in the presence of 10 mM N-acetyl-L-cysteine (NAC) (SCC-9 cells [2]): NAC protected cell death | cell death after pretreatment with 20 μM z-VAD-fmk (ZVAD) (SCC-9 cells [3]): significantly attenuated | cytotoxic effect after pretreatment with 20 μM necrostatin-1 (Nec-1), alone or with ZVAD (SCC-9 cells [3]): failed to reverse the cytotoxic effect | inhibition at 55.13 µM (PKM2): ~50%
